In publication PMC5563081, “Modulating Protein-Protein Interactions of the Mitotic Polo-like Kinases to Target Mutant KRAS” (Cell Chemical Biology, 2017):

Key:
phospho-Ser10 histone H3 = experiment: Phospho-histone H3 (Ser10) in xenograft tumour lysates (Western blot); format: in vivo, mouse; conditions: within 24 hr after single 200mg/kg oral dose, compared with vehicle
Protocol: Tumours were established by sub-cutaneous implantation of 2 x 10^6 HCT116 cells suspended in 50% Matrigel into the flanks of a cohort of mice. When a sufficient number of mice had developed tumours of approximately 100mm3, they were randomly assigned to three groups: Vehicle, 50mg/kg Poloppin-II or 200mg/kg Poloppin-II, with 10 mice per group. Mice were treated orally according to their treatment group once every three days. Tumour volume was measured three times per week with calipers. Body weight was measured three times per week. In addition to mice assigned to tumour volume efficacy arm of the study, 16 mice with established HCT116 xenografts were assigned to either Vehicle or 200mg/kg oral dosing groups, with 8 mice per group. 24 hours after a single dose, mice were euthanised, tumours removed, snap frozen and 30-50microgram of lysates were analysed by Western blotting on 4-12% Bis-Tris acrylamide gels, and transferred using the Invitrogen iBlot dry system. Phospho-Histone H3 was detected using Abcam antibody ab5176, beta-actin with Sigma antibody a5316. […] HRP was visualised with ECL-Plus (GE Healthcare).

PLK1 = molecular target: T1, PLK1 (Homo sapiens, UniProt P53350); experiment: Cellular thermal shift assay (CeTSA / ITDRF-CeTSA) in HeLa cell lysates; format: binding
T1 construct: endogenous in cells; host or cells: HeLa cell lysate
Protocol: Two million HeLa cells were assessed for viability using Trypan blue and aliquoted into PCR tubes for lysate preparation and CeTSA. Aggregation temperature (Tagg) was determined for PLK1 PBD with a Biorad Tetrad gradient maker, using a final concentration of 1mM or 0.5mM for Poloppin or Poloppin-II, respectively, in 5% DMSO ([Jafari et al., 2014]). Samples were assessed using PLK1 antibodies (Invitrogen 33-1700) and GAPDH (Santa Cruz sc137179) and Li-Cor antibody (926-32252). Quantification was done with Odyssey Li-Cor technology.

[1] = tested on: HeLa cells expressing KRAS G12D; experiment: Live-cell imaging of cell fate, HeLa KRAS G12D; format: cell-based, human; conditions: Poloppin at GI50 dose, 3% in DMSO controls
Protocol: (§1) Five x10^4 cells were seeded on each well of 4-well coverglass Lab-Tek chambers in a volume of 800 μl. HeLa-G12D cells were induced with Doxycycline (Dox) 24h before seeding and kept in Dox for the rest of the experiment.
For live cell imaging analysis image sequences were viewed using ImageJ software and cell fate was analysed manually. Time spent in mitosis for different groups was compared with a Kruskal-Wallis test and Dunn's multiple comparison correction.

HeLa-KRAS G12D = experiment: GI50 for cell killing, HeLa-KRAS G12D; format: cell-based; conditions: Homo sapiens
Protocol: as §1

HCT116 wt = experiment: Viability of drug-sensitive parental HCT116 cells; format: cell-based; conditions: Homo sapiens, HCT-116, 72 h
Protocol: Viability is represented as percentage survival normalised to DMSO control. […] PCR reactions were carried out using Amplitaq Gold polymerase (Applied Biosystems N8080241) with a 25-cycle programme. […] Prepared samples were submitted for next generation sequencing using MiSeq Nano run with Nextera XT library preparation. Sequencing and subsequent bioinformatics were performed by Cambridge Genomic Services (University Of Cambridge).

HCT116 KRAS G13D cells = experiment: Development of drug resistance under continuous treatment; format: cell-based, human; conditions: continuous treatment at 5x GI50
Protocol: HCT116 wild-type cells (Horizon Discovery Ltd.) cultured in McCoy's 5A (Life Technologies #26600) medium supplemented with 10% Foetal Calf Serum (Life Technologies #10270) were treated on three occasions with titrations of the PLK1 ATP-competitive inhibitor BI 2536 (Selleckchem #S1109) or Poloppin in order to determine the 2.5x GI50, 3x GI50 and 5x GI50 values for each compound required to initiate the development of resistance. Cells were subsequently treated with 2.5x GI50, 3x GI50 and 5x GI50 concentrations of either compound, changing media and compound every three to four days until resistant colonies emerged or no viable cells remained. Single cell clones were isolated from cells resistant to 5x GI50 BI 2536. Equivalent experiments using 3x GI50 or 2.5x GI50 doses of Poloppin or BI2536 yielded identical results (data not shown). BI 2536-resistant clones (HCT116 BI 2536-Res. Clones) were treated with BI2536 or Poloppin, alongside drug-sensitive parental HCT116 cells (HCT116 wt), and viability was assessed after 72 h. Viability is represented as percentage survival normalised to DMSO control. […]

T1 sequence (P53350 whole entry): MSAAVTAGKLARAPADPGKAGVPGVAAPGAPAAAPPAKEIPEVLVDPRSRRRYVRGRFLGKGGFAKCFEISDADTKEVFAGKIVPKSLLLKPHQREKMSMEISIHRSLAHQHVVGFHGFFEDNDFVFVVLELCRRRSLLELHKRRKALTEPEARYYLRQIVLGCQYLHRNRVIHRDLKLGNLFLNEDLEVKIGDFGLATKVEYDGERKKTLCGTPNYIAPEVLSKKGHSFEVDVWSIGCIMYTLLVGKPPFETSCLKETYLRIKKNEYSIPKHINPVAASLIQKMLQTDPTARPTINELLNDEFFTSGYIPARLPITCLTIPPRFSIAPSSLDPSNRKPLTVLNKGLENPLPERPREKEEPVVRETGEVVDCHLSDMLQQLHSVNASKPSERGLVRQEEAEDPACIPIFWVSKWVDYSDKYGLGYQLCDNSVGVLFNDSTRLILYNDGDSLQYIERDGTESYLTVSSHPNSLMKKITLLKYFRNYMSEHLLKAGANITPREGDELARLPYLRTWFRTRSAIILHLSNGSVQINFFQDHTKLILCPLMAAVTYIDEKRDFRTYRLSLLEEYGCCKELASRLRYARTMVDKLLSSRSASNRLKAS

Row | SMILES | phospho-Ser10 histone H3 expression in xenografts (phospho-Ser10 histone H3) | concentration at which cellular PLK1 is stabilized (ITDRF-CeTSA) (PLK1; cell lysates at a constant 67°C) [µM] | thermal stability of PLK1 protein (CeTSA) (PLK1; fixed dose of 1 mM, HeLa cell lysates, compared with control) | frequency of death in mitosis [1] [%] | GI50 (HeLa-KRAS G12D) [µM] | GI50 (HCT116 wt) [µM] | acquisition of drug resistance (HCT116 KRAS G13D cells)
1 | CN(C)CCNC(=O)c1ccc(-c2ccc(-c3ccc(Cl)cc3)n2-c2ccccc2C(F)(F)F)cc1 [Poloppin-II] | increased levels |  |  |  |  |  | 
2 | O=C(O)CCc1ccc(-c2ccc(Br)cc2)n1-c1ccccc1C(F)(F)F [Poloppin] |  | > 40 | increased thermal stability | 36 | 5 | 11.1 | undetectable
